Values belong to the molecule of their own block, whether it stands above or below them. Peptide text beside a SMILES is read from it.
Tests used:
3T3-L1 cells = test: In vitro adipocyte differentiation, Oil Red O staining for lipid accumulation; type: cell-based; conditions: differentiated 3T3-L1 preadipocytes, treated 2 or 3 days
[1] = test system: aP2 (FABP4) mRNA in SVF cells; test: qPCR of PPARγ target gene aP2; type: cell-based, murine; conditions: 5 μM compound, 3 days, normalized to GAPDH
PPARγ = conditions: cited from earlier work
[2] = Aggregation seen in SPR running buffer; type: physicochemical; conditions: PBS + 5%DMSO

SMILES: CCC(NC(=O)c1ccc2c(ccn2S(=O)(=O)c2cccc3ccccc23)c1)c1ccccc1 (stereo not shown) [SR2067, 1-(Naphthalen-1-ylsulfonyl)-N-(1-phenylpropyl)-1H-indole-5-carboxamide]
oil red staining for lipid accumulation (3T3-L1 cells): less than that of the full agonist rosiglitazone but higher than that of the antagonist SR1664 | expression levels of the PPARγ target gene aP2 [1]: lower than those observed in cells treated with the full agonist rosiglitazone but higher than those in cells exposed to the antagonist SR1664

SMILES: N[C@@H](Cc1c[nH]c2ccccc12)C(=O)N[C@@H](CCC(=O)O)C(=O)O [G3335] (H-Trp-Glu-OH)
kd (PPARγ): 0.028 s⁻¹

concentration above which concentration-dependent aggregation occurs [2]: above 30 μM
SMILES: CN(CCOc1ccc(CC2SC(=O)NC2=O)cc1)c1ccccn1 (stereo not shown) [rosiglitazone, Rosiglitazone]

Reference: PMC4819005 (ACS chemical biology, 2015)
